# Data published in patent US6355657B1, “System for percutaneous delivery of opioid analgesics” (Atrix Laboratories, Inc., priority 1998, dated 2002).
# Where “and” joins values, the source holds several entries; their conditions need not be identical. Equal values may be shown once. Where a name gives a salt, the structure may show the parent alone. Read-outs that look alike come from different tables or passages of the source.
# How the values were obtained:
# [1] = Solubility of loperamide hydrochloride in solvents and solvent mixtures (titration to cloud point, HPLC of saturated solutions); format: physicochemical
# Procedure: The solubility studies of loperamide hydrochloride were initiated using the formulation systems shown in Table I through multiple titrations confirmned by HPLC analysis of saturated solutions. For systems having at least 5% loperamide hydrochloride solubility, the transport of loperamide hydrochloride across the skin was characterized by 500 μL and 20 μL dosing of excised human cadaver skin using a Franz in vitro skin diffusion cell.
# Solvent systems were mixed according to weight. For combinations of solvents that were single phase, loperamide hydrochloride was added in 0.1% increments until the system clouded. This was taken as the approximate saturation value for loperamide hydrochloride in that system. The system was then allowed to remain undisturbed for at least 24 hours. Often large crystals of loperamide hydrochloride would form upon standing. This solution was then filtered, appropriately diluted and assayed according to the HPLC method described below.
# [2] = Solubility of loperamide hydrochloride in the receptor solution (spiked receptor solutions); format: physicochemical; details: 10% (v/v) N-methyl-2-pyrrolidone in water
# Source text: The receptor solution was 10% (v/v) N-methyl-2-pyrrolidone in water.
# [3] = cited from earlier work
smiles,measurement,setting,value
"CN(C)C(=O)C(CCN1CCC(O)(c2ccc(Cl)cc2)CC1)(c1ccccc1)c1ccccc1 [loperamide hydrochloride, 4-(p-chlorophenyl)-4-hydroxy-N,N-dimethyl-α,(α-diphenyl-1-piperidinebutyramide hydrochloride]",loperamide hydrochloride solubility,[1]; 1:1:1 propylene glycol:ethanol:ethyl acetate,greater than 5 % (w/w)
same,loperamide hydrochloride solubility,[1]; 1:1:4:3 N-methyl-2-pyrrolidone:propylene glycol:alcohol:water,greater than 6 % (w/w)
same,loperamide hydrochloride solubility,[1]; 1:1:4:5 N-methyl-2-pyrrolidone:ethyl acetate:ethanol:water,greater than 5 % (w/w)
same,loperamide hydrochloride solubility,"[1]; 10% (v/v) water, 18% (v/v) N-methyl-2-pyrrolidone and 72% (v/v) ethanol ternary blend (FIG. 4)",19 % (w/w)
same,loperamide hydrochloride solubility,[1]; 60/40 propylene glycol/ethyl acetate solvent blend (FIG. 2),18 % (w/w)
same,loperamide hydrochloride solubility,"[1]; combination of propylene carbonate and ethanol, ratio not stated (FIG. 1)",exceeded 20 % (w/w)
same,loperamide hydrochloride in solution,"[1]; formulations of mixtures of water, alcohols and organic solvents, ambient temperatures",up to 30 % (w/w)
same,loperamide hydrochloride solubility,"[1]; most non-aqueous organic solvents (exceptions NMP, propylene glycol, ethanol)",less than 1 % (w/w)
same,Loperamide hydrochloride Solubility (w/w),"[1]; solvent Ethanol, hydrochloride",10 % (w/w)
same,Loperamide hydrochloride Solubility (w/w),[1]; solvent Isopropyl Myristate,0.001% (w/w)
same,Loperamide hydrochloride Solubility (w/w),"[1]; solvent N-methyl-2-pyrrolidone, hydrochloride",16 % (w/w)
same,Loperamide hydrochloride Solubility (w/w),"[1]; solvent Propylene Glycol, hydrochloride",9 % (w/w) and 8 % (w/w)
same,loperamide hydrochloride solubility,"[1]; the solvents of Table 1 except N-methyl-2-pyrrolidone, ethanol and propylene glycol",≤ 0.5 % (w/w)
same,solubility of loperamide hydrochloride in receptor solution,[2],greater than 380 ppm
same,solubility,[3]; 2-butanone,0.18 grams per 100 mL solvent
same,solubility,[3]; 2-propanol,1.11 grams per 100 mL solvent
same,solubility,[3]; 4-methyl-2-pentanone,0.020 grams per 100 mL solvent
same,solubility,"[3]; N,N-dimethylformamide",10.3 grams per 100 mL solvent
same,solubility,[3]; acetone,0.20 grams per 100 mL solvent
same,solubility,[3]; citrate-phosphate buffer (pH 6.1),0.008 grams per 100 mL solvent
same,solubility,[3]; citrate-phosphate buffer (pH 7.9),less than 0.001 grams per 100 mL solvent
same,solubility,[3]; dichloromethane,35.1 grams per 100 mL solvent
same,solubility,[3]; diethyl ether,less than 0.001 grams per 100 mL solvent
same,solubility,[3]; dimethylsulfoxide,20.5 grams per 100 mL solvent
same,solubility,[3]; ethanol,5.37 grams per 100 mL solvent
same,solubility,[3]; ethyl acetate,0.035 grams per 100 mL solvent
same,solubility,[3]; hexane,less than 0.001 grams per 100 mL solvent
same,solubility,[3]; methanol,28.6 grams per 100 mL solvent
same,solubility,[3]; polyethylene glycol 400,1.40 grams per 100 mL solvent
same,solubility,[3]; propylene glycol,5.64 grams per 100 mL solvent
same,solubility,[3]; tetrahydrofuran,0.32 grams per 100 mL solvent
same,solubility,[3]; toluene,0.001 grams per 100 mL solvent
same,solubility,[3]; water (at physiological pH),0.002 grams per 100 mL solvent
same,solubility,[3]; water (pH 1.7),0.14 grams per 100 mL solvent
